Test results from patent publication US20150337315A1, “COMPOSITIONS AND METHODS TARGETING SIGNALING BY THE G PROTEIN BETA-GAMMA SUBUNIT FOR THE TREATMENT OF ASTHMA” (priority 2014, published 2015).
Entries after “also recorded” stand apart in the source; their conditions may differ.

Tests used:
[1] = system: PDE activity in asthmatic HASM cells; assay: cAMP PDE activity assay in lysates of treated or siRNA-transfected asthmatic HASM cells; type: cell-based, human; settings: for effect on heightened basal PDE activity: × 2 hr
Experimental: Primary cultures of HASM cells derived from bronchial smooth muscle freshly isolated post-mortem from normal non-asthmatic (n=3) and asthmatic (n=4) donor lungs were purchased at passage 2-3 from Lonza Walkersville, Inc. Other than data regarding age, race, and gender of the donors provided in Table 1, limited information was available with respect to clinical severity of asthma, treatment history, or cause of death, with exception to asthma donor #1. All the experiments were conducted at passage 5-6, after growing the cells in Lonza's serum-containing SmBM medium supplemented with the BulletKit medium that contains insulin, human FGF, gentamycin/amphotericin B. The cells were maintained throughout in a humidified incubator containing 5% CO2 in air at 37° C. and, after attaining ˜90% confluence, cells were growth arrested for 24 hr in serum-free Ham's F12 medium. Thereafter, the cells were examined for constitutive and induced changes in PDE activity, levels of free Gβ, c-Src and ERK1/2 phosphorylation, and PDE4D protein expression, all in the absence and presence of different pretreatment conditions, as described.
Levels of total cAMP PDE activity were determined in normal and asthmatic HASM cells at baseline and at different times ranging from 0.25-24 hr following administration of a maximally effective concentration of either: 1) a cell permeable anti-Gβγ blocking peptide (1 μM; AnaSpec; Premont, Calif.), comprised of a membrane permeable sequence (MPS; 15 amino acids) conjugated to the Gβγ-sequestering C-terminal domain (28 amino acids) of phosducin-like protein [28]; 2) the inert MPS peptide alone (1 μM) serving as a negative-control; or 3) 1 μM of gallein [29], a recently described small molecule inhibitor of Gβγ signaling (Acros Organics). PDE activity was also assayed in normal and asthmatic HASM cells following dose-dependent administration of anti-Gβγ blocking peptide (0.01-10 μM), and following treatment with various small molecule inhibitors, as described. The PDE activity assay was performed in the HASM cell lysates using a colorimetric, non-radioactive enzymatic assay (Enzo Life Sciences; Plymouth Meeting, Pa.) as per the manufacturer's protocol, with some modification of our previously described approach. Specifically, to maximize the sensitivity and yield of the measurement enzyme activity, we used materials including a cell lysis buffer completely free of phosphate, composed of 50 mM Tris, pH 7.5, 0.1 mM EDTA, 0.1 mM EGTA, 1 mM DTT and 0.2% NP-40. The measured levels of PDE activity were standardized to protein content in the cell extracts. Finally, PDE activity was also assayed in normal and asthmatic HASM cells following transfection with siRNA preparations targeted at suppressing specific signaling molecules, as described below.
Targeted protein suppression using siRNA preparations was examined in normal and asthmatic HASM cells that were initially seeded into 6-well plates and, at ˜40% confluency, the medium was replaced with the reduced serum-containing medium, Opti-MEM (Invitrogen). Cells were then transfected twice during a 24-hr interval with pools of siRNA preparations, each pool comprised of three siRNA duplexes targeted against either human Rap1GAP (Ambion; ID: s11785, s11786, s11787), RGS14, (Ambion; ID: 18059, 18147, 135857), or the PKAα catalytic subunit (Santa Cruz Biotechnology; Pool ID: sc-36240), as well as a non-targeted (scrambled) siRNA duplex serving as a negative control. As previously described [16.17.31], the transfections were carried out using Oligofectamine (Invitrogen) as the transfection agent, and the pools of siRNAs were applied to each well at a final concentration of 100 nM for each siRNA preparation.

[2] = system: phosphorylated c-Src (p-Src); assay: Immunoblot of phosphorylated c-Src (Tyr416) in asthmatic HASM cells; type: cell-based, human
Experimental: (§1) Levels of total and phosphorylated c-Src at residue Tyr416 and ERK1/2 proteins, as well as Gβ protein, were detected by Western blot analysis of lysates isolated from normal and asthmatic HASM cells before and at various times after treatment either with 1 μM of anti-Gβγ blocking peptide or gallein, or the c-Src family tyrosine kinase-selective inhibitor, SU6656 (10 μM), or exposure to the pro-asthmatic Th2 cytokine, IL-13 (50 ng/ml), as described. Following protein extraction and addition of gel loading buffer, the cellular extracts were loaded on a 10% SDS-PAGE gel for immunoblotting after transfer to a PVDF membrane. The membranes were then incubated overnight with monoclonal mouse anti-human primary antibodies directed against c-Src, phospho-c-Src^Tyr416, ERK1/2 and phospho-ERK1/2 (Millipore; Billerica, Mass.), and a rabbit anti-human polyclonal antibody directed against the Gβ subunit (Millipore; Billerica, Mass.). Protein levels were detected by ECL after a 1-hr incubation with a 1:2,000 dilution of HRP-conjugated secondary antibody, followed by exposure to autoradiography film. The protein band intensities were quantified by densitometry.

[3] = system: PDE activity detected in cultured asthmatic HASM cells; settings: recent report [27]; cited from earlier work
[4] = system: co-localization of p-Src with immunoprecipitated Gβ; assay: Co-IP of p-Src with immunoprecipitated Gβ in IL-13-treated normal HASM cells; type: cell-based, human; settings: IL-13 × 60 min
Experimental: as §1, with “The membranes were then incubated overnight with monoclonal mouse anti-human primary antibodies directed against c-Src, phospho-c-Src^Tyr416, ERK1/2 and phospho-ERK1/2 (Millipore; Billerica, Mass.), and a rabbit anti-human polyclonal antibody directed against the Gβ subunit (Millipore; Billerica, Mass.).” left out
(§2) Normal and asthmatic HASM cells were prepared for co-immunoprecipitation (Co-IP) studies, performed as previously described, under native conditions in order to preserve protein-protein associations. […] The precipitated immunocomplexes were subsequently analyzed by immunoblotting using either anti-Gβ, anti-phospho-c-Src^Tyr416, anti-ERK1/2, or anti-PDE4D rabbit polyclonal antibody, or anti-Rap1GAP rabbit monoclonal IgG antibody (Millipore; Billerica, Mass.).

[5] = system: phosphorylated ERK1/2 (p-ERK1/2); assay: Immunoblot of phosphorylated ERK1/2 in asthmatic HASM cells; type: cell-based, human; settings: 1 μM × 30 min
Experimental: as §1

[6] = system: co-localization of ERK1/2 with PDE4D; assay: Co-IP of PDE4D with immunoprecipitated ERK1/2 in asthmatic HASM cells; type: cell-based, human; settings: within 30 min
Experimental: Normal and asthmatic HASM cells were prepared for co-immunoprecipitation (Co-IP) studies, performed as previously described, under native conditions in order to preserve protein-protein associations. After indicated treatments, cells were harvested and then exposed to lysis buffer. 1.5 mg of Protein G Dynabeads (Invitrogen; Carlsbad, Calif.) were incubated with 10 μg of anti-Gβ rabbit IgG (Millipore) or anti-Gα (pan) rabbit polyclonal antibody (Millipore; Billerica, Mass.) and incubated for 10 min at room temperature with rotation. Following several washes, the bound bead/antibody complex was added to sample, mixed by pipetting, and incubated for 2 hr at 4° C. with rotation. The captured bead/Protein G/antigen complex was then washed several times and eluted at pH 3.0 with rotation at room temperature. The precipitated immunocomplexes were subsequently analyzed by immunoblotting using either anti-Gβ, anti-phospho-c-Src^Tyr416, anti-ERK1/2, or anti-PDE4D rabbit polyclonal antibody, or anti-Rap1GAP rabbit monoclonal IgG antibody (Millipore; Billerica, Mass.).

[7] = system: co-localization of Gβ with immunoprecipitated Gα; assay: Western blot / Co-IP of free Gβ and Gα-associated Gβ in asthmatic HASM cells; type: cell-based, human; settings: 1 μM, 30 min
Experimental: as §1, with “The membranes were then incubated overnight with monoclonal mouse anti-human primary antibodies directed against c-Src, phospho-c-Src^Tyr416, ERK1/2 and phospho-ERK1/2 (Millipore; Billerica, Mass.), and a rabbit anti-human polyclonal antibody directed against the Gβ subunit (Millipore; Billerica, Mass.).” left out
as §2

[8] = system: co-localization of Gβ with immunoprecipitated Gα; assay: Western blot / Co-IP of free Gβ and Gα-associated Gβ in normal HASM cells; type: cell-based, human; settings: 1 μM, 30 min
Experimental: as §1, with “The membranes were then incubated overnight with monoclonal mouse anti-human primary antibodies directed against c-Src, phospho-c-Src^Tyr416, ERK1/2 and phospho-ERK1/2 (Millipore; Billerica, Mass.), and a rabbit anti-human polyclonal antibody directed against the Gβ subunit (Millipore; Billerica, Mass.).” left out
as §2

[9] = system: allergic rabbits; settings: previous study (18); cited from earlier work
[10] = system: asthmatic individuals; settings: cited from earlier work
[11] = system: isolated rabbit ASM tissues; settings: sensitized under various proasthmatic conditions; [16-18]; cited from earlier work
[12] = system: PDE activity evoked in cultured normal HASM cells; settings: sensitized under various proasthmatic conditions; [16-18]; cited from earlier work
[13] = system: free Gβ protein levels; assay: Immunoblot of free Gβ protein in IL-13-treated normal HASM cells; type: cell-based, human; settings: IL-13 50 ng/ml, 50 μg/ml printed
Experimental: as §1

O=S(=O)(NCCNC/C=C/c1ccc(Br)cc1)c1cccc2cnccc12 [H89]
effect on heightened basal PDE activity ([1]; 10 μM): no significant effect

O=c1cc(N2CCOCC2)oc2c(-c3ccccc3)cccc12 [LY294002]
effect on heightened basal PDE activity ([1]; 10 μM): no significant effect

Oc1ccc(-c2nc(-c3ccncc3)c(-c3ccc(F)cc3)[nH]2)cc1 [SB202190]
effect on heightened basal PDE activity ([1]; 10 μM): no significant effect

CN(C)S(=O)(=O)c1ccc2c(c1)/C(=C/c1cc3c([nH]1)CCCC3)C(=O)N2 [SU6656]
effect on constitutively increased p-Src levels ([2]; SU6656 10 μM): suppressive effect | effect on heightened basal PDE activity ([1]; 10 μM): suppressed to near normal levels; also recorded: acutely reversed to near normal levels

N#CC(=C(/N)Sc1ccccc1N)/C(C#N)=C(\N)Sc1ccccc1N [U0126]
effect on heightened basal PDE activity ([1]; 5 μM): acutely reversed to near normal levels; also recorded: acutely suppressed the elevated PDE activity in asthmatic HASM cells to near normal levels

COc1ccc([C@]2(C#N)CC[C@@H](C(=O)O)CC2)cc1OC1CCCC1 [cilomilast]
effect on increased PDE activity in cultured asthmatic HASM cells [3]: inhibited

O=C1OC2(c3ccccc31)c1ccc(O)c(O)c1Oc1c2ccc(O)c1O [gallein]
effect on constitutively increased p-Src levels ([2]; 1 μM × 30 min): acutely suppressed | effect of pretreatment on IL-13-induced co-localization of p-Src with immunoprecipitated Gβ [4]: abrogated | effect on constitutively increased p-ERK1/2 levels [5]: acutely suppressed | effect on heightened co-localization of ERK1/2 with PDE4D [6]: acutely reversed | effect on Gβ distribution (increased free Gβ, reduced Gα-associated Gβ) [7]: acutely reversed | effect on Gβ distribution [8]: neither inhibitor had an effect | time at which PDE activity is suppressed to normal levels ([1]; 1 μM): 0.25 h | effect on constitutively increased PDE activity in asthmatic HASM cells ([1]; 1 μM (maximally effective concentration), acute effect): similarly acutely suppressed | duration of suppression of PDE activity ([1]; 1 μM, followed up to 24 hr): transient in nature | effect of pretreatment on in vivo AHR elicited by allergen challenge [9]: only suppressed AHR | effect of pretreatment on pulmonary inflammation elicited by allergen challenge [9]: no appreciable inhibitory effect

O=C(Nc1c(Cl)cncc1Cl)c1ccc(OC(F)F)c(OCC2CC2)c1 [roflumilast]
effect on increased PDE activity in cultured asthmatic HASM cells [3]: inhibited | effect on airway hyperresponsiveness following allergen challenge ([10]; [19,21]): decreases airway hyperresponsiveness | effect on lung function [10, 20]: improves lung function

COc1ccc(C2CNC(=O)C2)cc1OC1CCCC1 (centres unmarked) [rolipram]
effect on increased PDE activity evoked in isolated rabbit ASM tissues [11]: inhibits | effect on increased PDE activity evoked in cultured normal HASM cells [12]: inhibits | effect on heightened constitutive PDE activity ([1]; 10 μM × 1 hr, data not shown): completely abrogated

IL-13: pro-asthmatic Th2 cytokine used as stimulus
effect on co-localization of p-Src with immunoprecipitated Gβ ([4]; relative to unstimulated cells): increased co-localization; also recorded: enhanced co-localization | time of peak of evoked increase in free Gβ levels [13]: 60 to 90 min
